Assay results taken from the CheMixHub viscosity set.

Assay: xn = mol fraction of the nth substance listed

Cc1ccccn1 + CCC(C)=O
viscosity [mPa·s], 101.3 kPa
Conditions | x1 = 0.1 | x1 = 0.2 | x1 = 0.3 | x1 = 0.4 | x1 = 0.5 | x1 = 0.6 | x1 = 0.7 | x1 = 0.7999 | x1 = 0.9
303.15 K | 0.4017 | 0.4296 | 0.4565 | 0.4877 | 0.5193 | 0.5612 | 0.5978 | 0.6425 | 0.6942
313.15 K | 0.3667 | 0.3917 | 0.416 | 0.4445 | 0.4702 | 0.5038 | 0.5356 | 0.5718 | 0.6118
323.15 K | 0.3457 | 0.3572 | 0.3813 | 0.4009 | 0.4264 | 0.4523 | 0.4827 | 0.5104 | 0.5528

ClC=C(Cl)Cl + CCC(C)=O
viscosity [mPa·s], 101.33 kPa
Conditions | x1 = 0.1037 | x1 = 0.1997 | x1 = 0.3082 | x1 = 0.3915 | x1 = 0.4564 | x1 = 0.5979 | x1 = 0.7166 | x1 = 0.7989 | x1 = 0.891
298.15 K | – | 0.507 | – | – | 0.557 | 0.592 | 0.612 | 0.622 | 0.63
308.15 K | 0.447 | 0.467 | 0.491 | 0.506 | 0.518 | 0.543 | 0.559 | 0.564 | 0.575
318.15 K | 0.413 | 0.434 | 0.456 | 0.471 | 0.481 | 0.504 | 0.521 | 0.531 | 0.541

ClC=C(Cl)Cl + CCC(C)O
303.15 K, 101.3 kPa
Conditions | viscosity [mPa·s]
x1 = 0.1104 | 1.721
x1 = 0.213 | 1.3
x1 = 0.312 | 1.042
x1 = 0.4086 | 0.881
x1 = 0.5218 | 0.761
x1 = 0.6132 | 0.695
x1 = 0.7094 | 0.647
x1 = 0.8124 | 0.606
x1 = 0.9012 | 0.57

NC1CCCCC1 + CCC(C)O
298.15 K, 101 kPa
Conditions | viscosity [mPa·s]
x1 = 0.0767 | 2.804
x1 = 0.1574 | 2.619
x1 = 0.2426 | 2.472
x1 = 0.3325 | 2.369
x1 = 0.4277 | 2.302
x1 = 0.5285 | 2.25
x1 = 0.6355 | 2.224
x1 = 0.7493 | 2.148
x1 = 0.8706 | 2.002

CC(O)CO (centres undefined) + CCCCCCCO
Conditions | viscosity [mPa·s]
303.15 K, 101 kPa, x2 = 0.6097 | 7.655

ClC=C(Cl)Cl + CCCCCCCO
303.15 K, 101 kPa
Conditions | viscosity [mPa·s]
x2 = 0.1161 | 0.734
x2 = 0.2045 | 0.863
x2 = 0.3792 | 1.166
x2 = 0.4884 | 1.459
x2 = 0.5714 | 1.767
x2 = 0.6298 | 2.03
x2 = 0.737 | 2.643
x2 = 0.8161 | 3.197
x2 = 0.9242 | 4.119

CC(O)CO (centres undefined) + CCCCCCO
101 kPa
Conditions | viscosity [mPa·s]
303.15 K, x2 = 0.6309 | 6.725
308.15 K, x2 = 0.0771 | 20.05

O=C1CCCC1 + CCCCCCO
303.15 K, 101 kPa
Conditions | viscosity [mPa·s]
x1 = 0.0985 | 2.896
x1 = 0.2605 | 2.093
x1 = 0.4224 | 1.641
x1 = 0.5807 | 1.333
x1 = 0.7406 | 1.132
x1 = 0.9025 | 1.016

O=C1CCCC1 + CCCCCO
303.15 K, 101 kPa
Conditions | viscosity [mPa·s]
x1 = 0.0989 | 2.258
x1 = 0.2598 | 1.682
x1 = 0.4202 | 1.353
x1 = 0.5803 | 1.179
x1 = 0.7374 | 1.057
x1 = 0.9009 | 0.98

O=C1CCCC1 + CCCCN
303.15 K, 101.33 kPa
Conditions | viscosity [mPa·s]
x2 = 0.0957 | 1.45
x2 = 0.2075 | 1.902
x2 = 0.3126 | 2.204
x2 = 0.4731 | 2.34
x2 = 0.5364 | 2.252
x2 = 0.6816 | 1.904
x2 = 0.7758 | 1.552
x2 = 0.8894 | 1.073

CC(O)CO (centres undefined) + CCCCO
viscosity [mPa·s], 100 kPa
Conditions | 298.15 K | 303.15 K | 308.15 K | 313.15 K | 318.15 K | 323.15 K
x2 = 0.1 | 27.93 | 21.57 | 16.86 | 13.38 | 10.79 | 8.811
x2 = 0.2 | 19.65 | 15.46 | 12.28 | 9.943 | 8.14 | 6.729
x2 = 0.302 | 14.18 | 11.36 | 9.188 | 7.539 | 6.25 | 5.239
x2 = 0.4 | 10.82 | 8.829 | 7.309 | 6.057 | 5.107 | 4.328
x2 = 0.5 | 8.015 | 6.634 | 5.555 | 4.699 | – | –
x2 = 0.501 | – | – | – | – | 3.987 | 3.422
x2 = 0.6 | 6.068 | 5.094 | 4.337 | 3.686 | – | –
x2 = 0.601 | – | – | – | – | 3.178 | 2.743
x2 = 0.701 | 4.884 | 4.156 | 3.556 | 3.057 | 2.659 | 2.317
x2 = 0.801 | 3.858 | 3.307 | 2.885 | 2.514 | 2.199 | 1.937
x2 = 0.9 | 3.102 | 2.716 | 2.374 | 2.078 | – | –
x2 = 0.901 | – | – | – | – | 1.833 | 1.634

ClC=C(Cl)Cl + CCCCO
viscosity [mPa·s], 101 kPa
Conditions | x2 = 0.0983 | x2 = 0.2464 | x2 = 0.3954 | x2 = 0.5452 | x2 = 0.696 | x2 = 0.8476
303.15 K | 0.669 | 0.98 | 1.24 | 1.492 | 1.747 | 2
313.15 K | 0.601 | 0.814 | 1.03 | 1.218 | 1.408 | 1.599
323.15 K | 0.52 | 0.698 | 0.835 | 0.973 | 1.111 | 1.252

NC1CCCCC1 + CCCCO
viscosity [mPa·s], 101 kPa
Conditions | 293.15 K | 298.15 K | 303.15 K
x1 = 0.0515 | 2.935 | 2.587 | 2.27
x1 = 0.0767 | – | 2.558 | –
x1 = 0.1008 | 2.906 | 2.563 | 2.26
x1 = 0.147 | 2.891 | 2.549 | 2.24
x1 = 0.1574 | – | 2.555 | –
x1 = 0.2004 | 2.886 | 2.545 | 2.236
x1 = 0.2426 | – | 2.564 | –
x1 = 0.2992 | 2.897 | 2.547 | 2.233
x1 = 0.3325 | – | 2.574 | –
x1 = 0.4007 | 2.882 | 2.533 | 2.216
x1 = 0.4277 | – | 2.549 | –
x1 = 0.4475 | 2.868 | 2.523 | –
x1 = 0.4971 | 2.829 | 2.48 | 2.172
x1 = 0.5285 | – | 2.481 | –
x1 = 0.5421 | 2.784 | 2.442 | 2.142
x1 = 0.6078 | 2.701 | 2.387 | 2.095
x1 = 0.6355 | – | 2.379 | –
x1 = 0.7051 | 2.558 | 2.259 | 1.991
x1 = 0.7493 | – | 2.248 | –
x1 = 0.7941 | 2.419 | 2.142 | 1.893
x1 = 0.846 | 2.344 | 2.08 | 1.842
x1 = 0.8706 | – | 2.062 | –
x1 = 0.8879 | 2.295 | 2.039 | 1.81
x1 = 0.9384 | 2.216 | 1.973 | 1.751

O=C1CCCC1 + CCCCO
303.15 K, 101 kPa
Conditions | viscosity [mPa·s]
x1 = 0.101 | 1.725
x1 = 0.2614 | 1.339
x1 = 0.4183 | 1.143
x1 = 0.5813 | 1.026
x1 = 0.7417 | 0.974
x1 = 0.899 | 0.959

NC1CCCCC1 + CCCCOC(C)=O
298.15 K, 101 kPa
Conditions | viscosity [mPa·s]
x1 = 0.1151 | 0.6149
x1 = 0.2265 | 0.6836
x1 = 0.3342 | 0.8301
x1 = 0.4385 | 1.032
x1 = 0.5394 | 1.253
x1 = 0.6373 | 1.455
x1 = 0.7321 | 1.618
x1 = 0.8241 | 1.734
x1 = 0.9134 | 1.779

O=C1CCCC1 + CCCCOC(C)=O
viscosity [mPa·s], 101 kPa
Conditions | x2 = 0.0703 | x2 = 0.1461 | x2 = 0.2264 | x2 = 0.3112 | x2 = 0.4036 | x2 = 0.4995 | x2 = 0.6079 | x2 = 0.7264 | x2 = 0.8541
298.15 K | 1.044 | 1 | 0.957 | 0.913 | 0.867 | 0.826 | 0.785 | 0.749 | 0.714
303.15 K | 0.961 | 0.921 | 0.881 | 0.84 | 0.797 | 0.758 | 0.72 | 0.686 | 0.654
308.15 K | 0.892 | 0.856 | 0.82 | 0.783 | 0.746 | 0.71 | 0.676 | 0.645 | 0.618
313.15 K | 0.835 | 0.8 | 0.766 | 0.732 | 0.697 | 0.662 | 0.63 | 0.6 | 0.575

ClC=C(Cl)Cl + CCCCOCCO
viscosity [mPa·s], 101.33 kPa
Conditions | x1 = 0.1147 | x1 = 0.2158 | x1 = 0.3119 | x1 = 0.4264 | x1 = 0.5157 | x1 = 0.6108 | x1 = 0.687 | x1 = 0.8076 | x1 = 0.9043
303.15 K | 2.11 | 1.821 | 1.568 | 1.297 | 1.111 | 0.937 | 0.817 | 0.671 | 0.582
313.15 K | 1.646 | 1.451 | 1.271 | 1.074 | 0.934 | 0.806 | 0.718 | 0.608 | 0.537

NC1CCCCC1 + CCCCOCCO
298.15 K, 101 kPa
Conditions | viscosity [mPa·s]
x1 = 0.1169 | 2.872
x1 = 0.2295 | 3.006
x1 = 0.338 | 3.059
x1 = 0.4427 | 3.069
x1 = 0.5437 | 3.011
x1 = 0.6412 | 2.872
x1 = 0.7355 | 2.697
x1 = 0.8266 | 2.447
x1 = 0.9147 | 2.09
